Assay results published in US12171740B2, “Compositions and methods for treating allergic inflammatory conditions” (CHILDREN'S HOSPITAL MEDICAL CENTER, priority 2016, dated 2024).
Entries after “also recorded” stand apart in the source; their conditions may differ.

Tests used:
[1] = target: T1, KLK5 (Homo sapiens, UniProt Q9Y337); test: Inhibition of KLK5 by organic compounds (dose response); format: biochemical
T1 sequence (Q9Y337 23-293): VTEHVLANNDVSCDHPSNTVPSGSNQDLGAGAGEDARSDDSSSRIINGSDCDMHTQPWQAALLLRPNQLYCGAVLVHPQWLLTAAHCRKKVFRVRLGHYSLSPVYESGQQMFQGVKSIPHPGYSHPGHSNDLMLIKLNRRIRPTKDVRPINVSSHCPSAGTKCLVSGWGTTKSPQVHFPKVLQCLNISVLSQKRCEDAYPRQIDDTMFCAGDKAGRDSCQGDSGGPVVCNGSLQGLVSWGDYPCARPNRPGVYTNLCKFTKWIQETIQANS
Protocol: FIGS. 14A-14B show the effect of organic compounds on KLK5 activity. FIG. 14A is a dose response curve for 3-(3-chlorophenyl) carboxy-7-hydroxymethyl coumarin. FIG. 14B is a dose response curve for 3-carboxy-7-hydroxymethyl coumarin.
Two organic compounds were tested for their inhibition of KLK5.

[2] = test system: Filaggrin; test: Co-immunofluorescence staining of filaggrin in SPINK7-depleted EPC2 cells; format: cell-based, human; conditions: following ALI differentiation
Protocol: (§1) FIG. 12A is a bar graph showing FPKM values of uPA in the esophagus of EoE patients and controls. FIG. 12B is a bar graph showing analysis of the uPA proteolytic activity (active units—AU) in esophageal biopsies from 6 normal and 6 EoE patients. […] FIG. 12D is a bar graph showing quantification of trypsin-like activity in supernatants derived from NSC or SPINK7-depleted EPC2 cells that were treated with A1AT or a vehicle following ALI differentiation. FIG. 12E are electrical resistance measurements of NSC or SPINK7-depleted EPC2 cells that were treated with A1AT or a vehicle during ALI differentiation (Day 7). FIG. 12F are H&E staining images of NSC or SPINK7-depleted EPC2 cells that were treated with A1AT or a vehicle after ALI differentiation (Day 14)-add. FIG. 12G are images of co-immunofluorescence staining of E-cadherin and Filaggrin of NSC or SPINK7-depleted EPC2 cells that were treated with A1AT or a vehicle following ALI differentiation.
(§2) To extend the potential benefit of A1AT, its ability to restore the epithelial changes induced by SPINK7 loss was […]. […] Consistent with these findings, A1AT administration increased filaggrin expression (FIG. 12G)

[3] = test system: serine proteinases with trypsin-like activity; test: Trypsin-like / proteolytic activity in supernatants of SPINK7-depleted EPC2 cells; format: cell-based, human; conditions: following ALI differentiation
Protocol: (§3) FIG. 10A is a bar graph showing quantification of uPA activity in supernatants derived from (NSC) or SPINK7-depleted EPC2 cells following during ALI differentiation (day 7-9). FIG. 10B is a bar graph showing quantification of the activity of serine proteinases with trypsin-like activity in supernatants derived from (NSC) or SPINK7-depleted EPC2 cells and primary esophageal cells following ALI differentiation. Proteinase activity in the supernatants is calculated as nM concentrations according to standard dilutions of recombinant hKLK5. In vitro activity assays of KLK5 (FIG. 10C) KLK7 (FIG. 10D) and KLK11 (FIG. 10E) in the presence of the indicated concentrations of SPINK7. Data are represented as the mean±s.e.m.
FIG. 12A is a bar graph showing FPKM values of uPA in the esophagus of EoE patients and controls. FIG. 12B is a bar graph showing analysis of the uPA proteolytic activity (active units—AU) in esophageal biopsies from 6 normal and 6 EoE patients. […] FIG. 12D is a bar graph showing quantification of trypsin-like activity in supernatants derived from NSC or SPINK7-depleted EPC2 cells that were treated with A1AT or a vehicle following ALI differentiation. […]
The known SPINK7 target uPA (Cheng, X., Lu, S. H. & Cui, Y. Cancer letters 290, 87-95 (2010), and Huang, G. et al. Carcinogenesis 28, 2274-2281(2007)) was analyzed. […]

[4] = test system: SPINK7-depleted EPC2 cells; test: H&E staining of SPINK7-depleted EPC2 cells after ALI differentiation (epithelial integrity); format: cell-based, human; conditions: ALI differentiation Day 14
Protocol: as §1, §2

[5] = test system: SPINK7-depleted EPC2 cells; test: Barrier function (electrical resistance) of SPINK7-depleted EPC2 cells during ALI differentiation; format: cell-based, human; conditions: treated with A1AT during ALI differentiation, Day 7
Protocol: as §1
Paracellular and transcellular permeability of the ALI cultured cells were analyzed. […] Transepithelial electrical resistance (A) was measured from NSC and SPINK7-depleted EPC2 cells measured at day 7 and 8 during ALI differentiation (data not shown; data were representative of four experiments performed in triplicate and are represented as the mean±Sd). […]

[6] = target: T2, KLK11 (Homo sapiens, UniProt Q9UBX7); test: In vitro KLK11 activity assay in the presence of SPINK7; format: biochemical
T2 sequence (Q9UBX7 54-282): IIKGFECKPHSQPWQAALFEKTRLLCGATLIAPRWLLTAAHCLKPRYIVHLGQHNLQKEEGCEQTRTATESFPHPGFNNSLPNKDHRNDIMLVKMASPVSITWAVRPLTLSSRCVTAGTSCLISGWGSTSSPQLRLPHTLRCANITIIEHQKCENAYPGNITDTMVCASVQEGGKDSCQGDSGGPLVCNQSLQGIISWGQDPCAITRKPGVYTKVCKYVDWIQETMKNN
Protocol: as §3

[7] = target: KLK7 (Homo sapiens, UniProt P49862); test: In vitro KLK7 activity assay in the presence of SPINK7; format: biochemical
Chain of KLK7 (P49862 30-253): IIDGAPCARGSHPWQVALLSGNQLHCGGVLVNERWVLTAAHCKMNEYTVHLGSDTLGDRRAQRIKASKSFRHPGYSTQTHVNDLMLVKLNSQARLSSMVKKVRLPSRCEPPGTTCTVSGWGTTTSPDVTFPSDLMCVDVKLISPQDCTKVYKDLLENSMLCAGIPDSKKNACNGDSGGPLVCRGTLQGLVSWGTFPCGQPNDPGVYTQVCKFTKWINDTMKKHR
Protocol: as §3

[8] = target: uPA (Homo sapiens, UniProt P00749); test: uPA proteolytic activity inhibition by SPINK7; format: biochemical; conditions: data not shown
Protocol: The known SPINK7 target uPA (Cheng, X., Lu, S. H. & Cui, Y. Cancer letters 290, 87-95 (2010), and Huang, G. et al. Carcinogenesis 28, 2274-2281(2007)) was analyzed. […] An increased proteolytic activity using the broad trypsin-like activity substrate Val-Pro-Arg (FIG. 10B) was observed.

[9] = target: T1, KLK5; test: In vitro KLK5 activity assay in the presence of SPINK7; format: biochemical
Protocol: as §3

3-(3-chlorophenyl) carboxy-7-hydroxymethyl coumarin [Compound I]
IC50 [1]: 52000 ± 12000 nM
type of KLK5 inhibition (reversibility) [1]: non reversible inhibitors

O=C(O)c1cc2ccc(CO)cc2oc1=O [Compound II, 3-carboxy-7-hydroxymethyl coumarin]
IC50 [1]: 83 ± 8 nM
type of KLK5 inhibition (reversibility) [1]: non reversible inhibitors

A1AT: serine proteinase inhibitor alpha-1 anti-trypsin, administered to SPINK7-silenced cells [Compound A1AT]
filaggrin expression [2]: increased
trypsin-like activity of supernatant of SPINK7 silenced cells [3]: inhibited
epithelial integrity (inter-cellular spaces) [4]: decreased inter-cellular spaces
barrier function (electrical resistance) [5]: dose-dependent ability to improve barrier function

B1: SPINK7: serine proteinase inhibitor kazal-type 7 protein, tested in vitro against KLK5, KLK7, KLK11 and uPA (protein, UniProt P58062 20-85, looked up)
Serine protease inhibitor …: SEAASLSPKKVDCSIYKKYPVVAIPCPITYLPVCGSDYITYGNECHLCTESLKSNGRVQFLHDGSC
inhibition of KLK11 [6]: did not inhibit
inhibition of KLK7 [7]: did not inhibit; also recorded: not KLK7
inhibition of uPA proteolytic activity [8]: directly inhibited
inhibition of KLK5 proteolytic activity ([9]; in vitro): inhibited
Ki ([9]; mean±SD, dose-dependent, read-out: Ki, inhibition of KLK5 proteolytic activity): 132 ± 108 nM
